# Active and inactive are the calls of the source. The calls are words filed in the database; no cut-off is given here.
# How the values were obtained:
# [1] = system: NCI-H157; test: Cytotoxicity against human NCI-H157 cells at 0.1 uM after 48 hrs by sulforhodamine B assay; format: functional
# [2] = system: BHK-21; test: Cytotoxicity against golden hamster BHK21 cells at 1 uM after 48 hrs by sulforhodamine B assay; format: cell-based, Mesocricetus auratus; settings: bhk-21, 48 h
# [3] = system: Agrobacterium tumefaciens; test: Antitumor activity against Agrobacterium tumefaciens-induced tumor after 21 days by potato disc bioassay technique; format: functional
# [4] = system: BHK-21; test: Cytotoxicity against golden hamster BHK21 cells at 0.1 uM after 48 hrs by sulforhodamine B assay; format: cell-based, Mesocricetus auratus; settings: bhk-21, 48 h
# [5] = system: NCI-H157; test: Cytotoxicity against human NCI-H157 cells after 48 hrs by sulforhodamine B assay; format: functional, cell-based
# [6] = system: HepG2; test: Cytotoxicity against human HepG2 cells by MTT assay; format: functional, cell-based
# [7] = system: NCI-H157; test: Cytotoxicity against human NCI-H157 cells at 100 uM after 48 hrs by sulforhodamine B assay; format: functional
# [8] = system: BHK-21; test: Cytotoxicity against golden hamsterBHK21 cells at 10 uM after 48 hrs by sulforhodamine B assay; format: cell-based, Mesocricetus auratus; settings: hamster, bhk-21, 48 h
# [9] = system: BHK-21; test: Cytotoxicity against golden hamster BHK21 cells after 48 hrs by sulforhodamine B assay; format: cell-based, Mesocricetus auratus; settings: bhk-21, 48 h
# [10] = system: NCI-H157; test: Cytotoxicity against human NCI-H157 cells at 10 uM after 48 hrs by sulforhodamine B assay; format: functional
# [11] = system: NCI-H157; test: Cytotoxicity against human NCI-H157 cells at 1 uM after 48 hrs by sulforhodamine B assay; format: functional
# [12] = system: BHK-21; test: Cytotoxicity against golden hamster BHK21 cells at 100 uM after 48 hrs by sulforhodamine B assay; format: cell-based, Mesocricetus auratus; settings: bhk-21, 48 h
# [13] = system: Serratia marcescens; test: Antibacterial activity against Serratia marcescens assessed as zone of inhibition by measuring activity index after 24 to 48 hrs by well diffusion method relative to ampicillin; format: functional
# [14] = system: Klebsiella pneumoniae; test: Antibacterial activity against Klebsiella pneumoniae assessed as zone of inhibition by measuring activity index after 24 to 48 hrs by well diffusion method relative to penicillin G; format: functional, organism-based
# [15] = system: Klebsiella pneumoniae; test: Antibacterial activity against Klebsiella pneumoniae assessed as zone of inhibition after 24 to 48 hrs by well diffusion method; format: functional
# [16] = system: Serratia marcescens; test: Antibacterial activity against Serratia marcescens assessed as zone of inhibition by measuring activity index after 24 to 48 hrs by well diffusion method relative to amoxicillin; format: functional
# [17] = system: Streptococcus pyogenes; test: Antibacterial activity against Streptococcus pyogenes assessed as zone of inhibition after 24 to 48 hrs by well diffusion method; format: functional
# [18] = system: Staphylococcus aureus; test: Antibacterial activity against Staphylococcus aureus assessed as zone of inhibition after 24 to 48 hrs by well diffusion method; format: functional
# [19] = system: Leishmania major; test: Antileishmanial activity against Leishmania major promastigotes at 10 uM after 72 hrs by MTT assay relative to control; format: functional
# [20] = system: Staphylococcus epidermidis; test: Antibacterial activity against Staphylococcus epidermidis assessed as zone of inhibition after 24 to 48 hrs by well diffusion method; format: functional
# [21] = system: Staphylococcus aureus; test: Antibacterial activity against Staphylococcus aureus assessed as zone of inhibition by measuring activity index after 24 to 48 hrs by well diffusion method relative to amoxicillin; format: functional, organism-based
# [22] = system: Leishmania major; test: Antileishmanial activity against Leishmania major promastigotes at 100 uM after 72 hrs by MTT assay relative to control; format: functional
# [23] = system: Streptococcus pyogenes; test: Antibacterial activity against Streptococcus pyogenes assessed as zone of inhibition by measuring activity index after 24 to 48 hrs by well diffusion method relative to tetracycline; format: functional, organism-based
# [24] = system: Staphylococcus aureus; test: Antibacterial activity against Staphylococcus aureus assessed as zone of inhibition by measuring activity index after 24 to 48 hrs by well diffusion method relative to ampicillin; format: functional, organism-based
# [25] = system: Pseudomonas aeruginosa; test: Antibacterial activity against Pseudomonas aeruginosa assessed as zone of inhibition by measuring activity index after 24 to 48 hrs by well diffusion method relative to ampicillin; format: functional, organism-based
# [26] = system: Leishmania major; test: Antileishmanial activity against Leishmania major promastigotes at 0.1 uM after 72 hrs by MTT assay relative to control; format: functional
# [27] = system: Escherichia coli; test: Antibacterial activity against Escherichia coli assessed as zone of inhibition after 24 to 48 hrs by well diffusion method; format: functional
# [28] = system: Serratia marcescens; test: Antibacterial activity against Serratia marcescens assessed as zone of inhibition by measuring activity index after 24 to 48 hrs by well diffusion method relative to penicillin G; format: functional
# [29] = system: Streptococcus pyogenes; test: Antibacterial activity against Streptococcus pyogenes assessed as zone of inhibition by measuring activity index after 24 to 48 hrs by well diffusion method relative to ampicillin; format: functional, organism-based
# [30] = system: Staphylococcus epidermidis; test: Antibacterial activity against Staphylococcus epidermidis assessed as zone of inhibition by measuring activity index after 24 to 48 hrs by well diffusion method relative to penicillin G; format: functional, organism-based
# [31] = system: Pseudomonas aeruginosa; test: Antibacterial activity against Pseudomonas aeruginosa assessed as zone of inhibition after 24 to 48 hrs by well diffusion method; format: functional
# [32] = system: Streptococcus pyogenes; test: Antibacterial activity against Streptococcus pyogenes assessed as zone of inhibition by measuring activity index after 24 to 48 hrs by well diffusion method relative to amoxicillin; format: functional, organism-based
# [33] = system: Staphylococcus aureus; test: Antibacterial activity against Staphylococcus aureus assessed as zone of inhibition by measuring activity index after 24 to 48 hrs by well diffusion method relative to tetracycline; format: functional, organism-based
# [34] = system: Serratia marcescens; test: Antibacterial activity against Serratia marcescens assessed as zone of inhibition after 24 to 48 hrs by well diffusion method; format: functional
# [35] = system: Staphylococcus aureus; test: Antibacterial activity against Staphylococcus aureus assessed as zone of inhibition by measuring activity index after 24 to 48 hrs by well diffusion method relative to penicillin G; format: functional, organism-based
# [36] = system: Leishmania major; test: Antileishmanial activity against Leishmania major promastigotes at 1 uM after 72 hrs by MTT assay relative to control; format: functional
# [37] = system: Staphylococcus epidermidis; test: Antibacterial activity against Staphylococcus epidermidis assessed as zone of inhibition by measuring activity index after 24 to 48 hrs by well diffusion method relative to ampicillin; format: functional, organism-based
# [38] = system: Streptococcus pyogenes; test: Antibacterial activity against Streptococcus pyogenes assessed as zone of inhibition by measuring activity index after 24 to 48 hrs by well diffusion method relative to penicillin G; format: functional, organism-based
# [39] = system: Escherichia coli; test: Antibacterial activity against Escherichia coli assessed as zone of inhibition by measuring activity index after 24 to 48 hrs by well diffusion method relative to tetracycline; format: functional
structure (smiles),measurement,setting,value
CC[C@]1(O)C[C@H]2CN(CCc3c([nH]c4ccccc34)[C@@](C(=O)OC)(c3cc4c(cc3OC)N(C=O)[C@H]3[C@@](O)(C(=O)OC)[C@H](OC(C)=O)[C@]5(CC)C=CCN6CC[C@]43[C@@H]65)C2)C1 [VINCRISTINE],Activity,[1],69.8%
same,Activity,[2],70.9%
same,Activity,[3],100%
same,Activity,[4],69.8%
same,Activity,[5],Dose-dependent effect
same,IC50,[6],0.042 µg/mL
same,Activity,[7],74.5%
same,Activity,[8],72.6%
same,Activity,[9],Dose-dependent effect
same,Activity,[10],72.6%
same,Activity,[11],70.9%
same,Activity,[12],74.5%
COc1ccc(NC(=O)c2ccccc2C(=O)[O-])c([N+](=O)[O-])c1.[Na+],Activity,[1],25.1%
same,Activity_index,[13],0.92
same,Activity_index,[14],inactive
same,inhibition zone (IZ),[15],inactive
same,Activity,[2],44.2%
same,Activity_index,[16],1.22
same,inhibition zone (IZ),[17],inactive
same,inhibition zone (IZ),[18],inactive
same,Activity,[19],46.3%
same,inhibition zone (IZ),[20],inactive
same,Activity_index,[21],inactive
same,Activity,[4],40.5%
same,Activity,[22],49.5%
same,Activity_index,[23],inactive
same,Activity_index,[24],inactive
same,Activity_index,[25],inactive
same,Activity,[26],38.4%
same,Activity,[5],Dose-dependent effect
same,Activity,[7],52.2%
same,inhibition zone (IZ),[27],5 mm
same,Activity_index,[28],0.92
same,Activity_index,[29],inactive
same,Activity_index,[30],inactive
same,inhibition zone (IZ),[31],inactive
same,Activity_index,[32],inactive
same,Activity_index,[33],inactive
same,Activity,[8],48.9%
same,Activity,[9],Dose-dependent effect
same,inhibition zone (IZ),[34],7.33 mm
same,Activity_index,[35],inactive
same,Activity,[36],40.2%
same,Activity_index,[37],inactive
same,Activity,[10],50.3%
same,Activity_index,[38],inactive
same,Activity,[11],35.2%
same,Activity,[12],53.5%
same,Activity_index,[39],2.5

# From ChEMBL document CHEMBL4138175, “Newly designed organotin(IV) carboxylates with peptide linkage: Synthesis, structural elucidation, physicochemical characterizations and pharmacological investigations” (Eur J Med Chem, 2018)
